# Results: patent US5747500A, “Antiviral 2, 4-pyrimidinedione derivatives” (priority 1993, dated 1998)
# Key:
# [1] = cytotoxicity: viability of mock-infected MT-4 host cells (MTT method); assay type: cell-based; details: human, mt-4 cells, read-out: CD50: Cytotoxic concentration that causes death of cells by 50%
# Experimental: The cytotoxicity of the compounds of the present invention was assessed in parallel with their antiviral activity. It was based on the viability of mock-infected host cells as determined by the MTT methods (se J. Virol. Methods, 20, 309 (1988)).
# CD50 : Cytotoxic concentration that causes death of cells by 50%
# HIV = test: inhibition of HIV-induced cytopathic effect in MT-4 cells (MTT method); assay type: cell-based; details: for EC50: Human immunodeficiency virus 1, MT4, HIV-infected MT-4 cells, 1000 CCID50, 4 or 5 day incubation at 37° C., MTT method, read-out: ED50: Effective concentration for the inhibition of the proliferation of HIV by 50%; for S.I.: Selectivity index (CD50/ED50): ratio CD50/ED50, MT-4 cells
# Experimental: The anti-HIV assays were based on the inhibition of the virus-induced cytopathic effect in MT-4 cells as described in J. Virol. Methods, 16, 171 (1987). Briefly, MT-4 cells were suspended in culture medium at 2.5×10^5 cells/ml and infected with 1000 CCID50 (50% cell culture infective dose) of HIV. Immediately, after virus infection, 100 μl of the cell suspension was brought into each well of a flat-bottomedmicrotiter tray containing various concentrations of the test compounds. After a 4 or 5 day incubation at 37° C., the number of viable cells was determined by the 3-(4,5-dimethylthiazol-2-yl)-2,5-diphenyltetrazoliumbromide (MTT) method, as disclosed in J. Virol. Methods, 20, 309 (1988).
# ED50 : Effective concentration for the inhibition of the
# proliferation of HIV by 50%
compound,measurement,setting,value
"Cc1cc(C)cc(C(=O)c2c(C(C)C)c(=O)[nH]c(=O)n2C/C=C/CO)c1 [Example 76, 1-(4-hydroxy-trans-2-butenyl)-5-isopropyl-6-(3,5-dimethylbenzoyl)-2,4-pyrimidinedione]",CC50,[1],42 µg/mL
same,EC50,HIV,< 0.025 µg/mL
same,S.I.: Selectivity index (CD50/ED50),HIV,"> 1,679"
"CCc1c(Sc2cc(C)cc(C)c2)n(CC=CC(=O)O)c(=O)[nH]c1=O [Example 77, 1-(carboxyallyl)-5-ethyl-6-(3,5-dimethylphenylthio)-2,4-pyrimidinedione]",CC50,[1],68.3 µg/mL
same,EC50,HIV,< 0.902 µg/mL
same,S.I.: Selectivity index (CD50/ED50),HIV,> 75
"CCc1c(Sc2cc(C)cc(C)c2)n(C/C=C/CO)c(=O)[nH]c1=O [Example 78, 1-(4-hydroxy-trans-2-butenyl)-5-ethyl-6-(3,5-dimethylphenylthio)-2,4-pyrimidinedione]",CC50,[1],29 µg/mL
same,EC50,HIV,< 0.97 µg/mL
same,S.I.: Selectivity index (CD50/ED50),HIV,> 29
"CCc1c(C(=O)c2cc(C)cc(C)c2)n(C/C=C/CN=[N+]=[N-])c(=O)[nH]c1=O [Example 79, 1-(4-azido-trans-2-butenyl)-5-ethyl-6-(3,5-dimethylbenzoyl)-2,4-pyrimidinedione]",CC50,[1],8.2 µg/mL
same,EC50,HIV,< 0.009 µg/mL
same,S.I.: Selectivity index (CD50/ED50),HIV,> 911
"CCc1c(C(=O)c2cc(C)cc(C)c2)n(C/C=C/COC(C)=O)c(=O)[nH]c1=O [Example 80, 1-(4-acetoxy-trans-2-butenyl)-5-ethyl-6-(3,5-dimethylbenzoyl)-2,4-pyrimidinedione]",CC50,[1],44.4 µg/mL
same,EC50,HIV,< 0.033 µg/mL
same,S.I.: Selectivity index (CD50/ED50),HIV,"> 1,345"
"CCc1c(C(=O)c2cc(C)cc(C)c2)n(C/C=C/COC)c(=O)[nH]c1=O [Example 82, 1-(4-methoxy-trans-2-butenyl)-5-ethyl-6-(3,5-dimethylbenzoyl)-2,4-pyrimidinedione]",CC50,[1],43.1 µg/mL
same,EC50,HIV,< 0.32 µg/mL
same,S.I.: Selectivity index (CD50/ED50),HIV,> 134
"CCc1c(Oc2cc(C)cc(C)c2)n(C/C=C/CO)c(=O)[nH]c1=O [Example 83, 1-(4-hydroxy-trans-2-butenyl)-5-ethyl-6-(3,5-dimethylphenoxy)-2,4-pyrimidinedione]",CC50,[1],25.5 µg/mL
same,EC50,HIV,< 0.81 µg/mL
same,S.I.: Selectivity index (CD50/ED50),HIV,> 31
CCc1c(C(=O)c2cc(C)cc(C)c2)n(C/C=C/CO)c(=O)[nH]c1=O [Example 84],CC50,[1],55.4 µg/mL
same,EC50,HIV,< 0.009 µg/mL
same,S.I.: Selectivity index (CD50/ED50),HIV,"> 6,160"
"CCOCn1c(Cc2cc(C)cc(C)c2)c(CC)c(=O)[nH]c1=O [Ref. 1, 1ethoxymethyl-5-ethyl-6-(3,5-dimethylbenzyl)-2,4-pyrimidinedione, reference compound]",CC50,[1],44.7 µg/mL
same,EC50,HIV,< 0.009 µg/mL
same,S.I.: Selectivity index (CD50/ED50),HIV,"> 4,962"
"CCc1c(Sc2cc(C)cc(C)c2)n(COCc2ccccc2)c(=O)[nH]c1=O [Ref. 2, 1benzyloxymethyl-5-ethyl-6-(3,5-dimethylphenylthio)-2,4-pyrimidinedione, reference compound]",CC50,[1],6.05 µg/mL
same,EC50,HIV,< 0.009 µg/mL
same,S.I.: Selectivity index (CD50/ED50),HIV,> 672
